# According to PMC7006939 (ACS pharmacology & translational science, 2019):
# Where two headings read alike, the source gives them in different places.
# Tests used:
# pirin [1] = target: T1, pirin (Homo sapiens, UniProt O00625); experiment: ITC; type: binding
# T1 sequence (O00625 1-290): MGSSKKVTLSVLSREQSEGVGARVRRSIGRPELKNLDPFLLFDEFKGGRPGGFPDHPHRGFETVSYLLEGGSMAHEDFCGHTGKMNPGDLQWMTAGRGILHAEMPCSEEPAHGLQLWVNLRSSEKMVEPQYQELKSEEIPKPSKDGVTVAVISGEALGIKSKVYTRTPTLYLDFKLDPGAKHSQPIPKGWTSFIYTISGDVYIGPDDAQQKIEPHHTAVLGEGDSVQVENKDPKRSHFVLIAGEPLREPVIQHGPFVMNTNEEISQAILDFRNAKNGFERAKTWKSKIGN
# pirin [2] = target: T1, pirin; experiment: ITC; type: binding; remark: listed apart in the source
Compound,Kd (pirin [1]),Kd (pirin [2])
O=C(Nc1ccc(Cl)cc1)C1CN(C(=O)c2cccc(-c3ccco3)c2)CC(F)(F)C1 (racemic) [CCG-222740],4.3 µM,–
O=C(Nc1ccc(Cl)cc1)C1CN(C(=O)c2cc(F)cc(-c3ccncc3)c2)CC(F)(F)C1 (centres unmarked) [CCG-257081],–,8.5 µM
